Results published in patent publication US20040028744A1, “Mucoadhesive composition” (priority 2002, published 2004).

Assay: Solubility of benzocaine in ethyl alcohol with and without menthol
Format: physicochemical
From the text: While not wishing to be bound to any theory, it appears that, in embodiments containing the medicament, for example benzocaine, menthol improves the clarity of the composition by increasing the solubility of medicament in the gel composition. This belief is based on the observation that the solubility of benzocaine in ethyl alcohol containing menthol is higher than the solubility of benzocaine in ethyl alcohol without menthol. It is believed that menthol can enhance the interaction between polymethacrylate, such as Eudragit™ RS, and a medicament, such as benzocaine. This belief is based on an interaction study conducted with a Differential Scanning Calorimeter (DSC). Further, while not wishing to be bound to any theory, it appears that one or both of the polymers may be forming a complex with the medicament drug in the presence of menthol and enhancing the clarity of the composition.

For `CCOC(=O)c1ccc(N)cc1` [benzocaine], the “solubility of benzocaine in ethyl alcohol containing menthol versus without menthol” value was “higher”.
